From US20230212202A1, “TREATMENT OF MGMT DEFICIENT CANCER WITH 2-FLUOROETHYL-SUBSTITUTED NITROSOUREAS AND OTHER COMPOUNDS” (YALE UNIVERSITY, priority 2021, published 2023)

Legend:
[1] = system: LN229 MGMT+/-, MMR+/- cells; test: Short-term cell viability assay, four isogenic LN229 glioblastoma cell lines; format: cell-based, human
[2] = system: LN229 MGMT+/-, MMR+/- cells; test: Clonogenic survival assay; format: cell-based, human
Method: Clonogenic Cell Survival Assay. Cells were trypsinized, washed, counted, and diluted in a medium containing various concentrations of drug. They were then immediately seeded in six-well plates in triplicate at three-fold dilutions, ranging from 9000 to 37 cells per well. Depending on colony size, these plates were kept in the incubator for 10 to 14 days. After incubation, colonies were washed in phosphate-buffered saline (PBS), stained with crystal violet, counted, and quantified.

[3] = system: DLD1 MSH6-deficient cells; test: Short-term viability assay with or without O6BG; format: cell-based, human; conditions: with or without O6BG-induced MGMT depletion
Description: (§1) Short-term Cell Viability Assay.

[4] = system: HCT116 MLH1-/- cells or HCT116 +Chr3 cells; test: Short-term viability assay with or without O6BG; format: cell-based, human
Description: as §1

[5] = system: linearized pUC19 plasmid DNA; test: In vitro DNA cross-linking assay; format: biochemical; conditions: 100 µM, 6-36 hours
Method: Plasmid Linearization Assay. To set up the linearization reactions, 20 units of EcoRI-HF (New England Biolabs) was mixed with 20 µg 2686 bp pUC19 vector DNA in CutSmart buffer (New England Biolabs), pH 7.9, in a total volume of 1000 µL for 30 min at 37° C. The CutSmart buffer contains 50 mM potassium acetate, 20 mM Tris acetate, 10 mM magnesium acetate, and 100 µg/mL BSA. The reacted DNA was then purified using PCR cleanup kit and quantified using the NanoDrop One (Thermo Fisher). The DNA was then stored at -20° C. before use in in vitro DNA cross-linking assays or melting temperature analysis.
In Vitro DNA Cross-linking Assays. Linearized pUC19 DNA, prepared as described above, was used for in vitro DNA cross-linking assays. For each condition, 200 ng of linearized pUC19 DNA (15.4 µM base pairs) was incubated with the indicated concentration of drug in 20 µL. Drug stock concentrations were made in DMSO such that each reaction contained a fixed 5% DMSO concentration. Reactions were conducted in 100 mM Tris buffer (pH 7.4). Cisplatin (Sigma) and DMSO vehicle were used as positive and negative controls, respectively. Reactions were conducted between 3-96 h at 37° C. The DNA was stored at -80° C. until electrophoretic analysis. For gel electrophoresis, DNA concentration was preadjusted to 10 ng/µL. […]

[6] = system: CHK1 and CHK2 phosphorylation in LN229 MGMT+/-, MMR+/- cells; test: Western blotting of CHK1 and CHK2 phosphorylation; format: cell-based, human; conditions: 20 µM, 24 or 48 h
Method: (§2) Western Blotting. For phospho-protein analysis experiments, cells were lysed in 1X RIPA buffer (Cell Signaling Technology, #9806) supplemented with 1X Protease Inhibitor Cocktail (Roche) and 1X PhosSTOP Phosphatase Inhibitor Cocktail (Sigma). For all other western blot analyses, cells were lysed in lysis buffer (50 mM HEPES, 250 mM NaCl, 5 mM EDTA, 1% NP-40) supplemented with 1X Protease Inhibitor Cocktail (Roche). The de-ubiquitination inhibitor N-ethylmaleimide (NEM, 4 mM) was added in FANCD2 ubiquitination analysis experiments. Proteins were separated using NuPAGE 4-12% Bis-Tris or 3-8% Tris-Acetate Gels (Invitrogen) and transferred to Immobilon-P PVDF membrane (Millipore) for western blotting. Membranes were blocked with 5% milk in TBS-T for 1 h prior to primary antibody addition overnight at 4° C. […] Where shown, bands were quantified using ImageJ software.

[7] = system: FANCD2 ubiquitination in LN229 MGMT+/-, MMR+/- cells; test: Western blot analysis of FANCD2 ubiquitination; format: cell-based, human
Method: as §2

[8] = system: DLD1 BRCA2+/- and BRCA2-/- cells; test: Short-term viability assay with or without O6BG; format: cell-based, human

Method for BJ fibroblast cells: Short-term Cell Viability Assay. Cells were seeded in 96-well plates at 1000 or 2000 cells/well and allowed to adhere at 23° C. for 60 min and then incubated overnight at 37° C. […] Cells were imaged on a Cytation 3 imaging reader (BioTek) and quantified using CellProfiler software.

NC(=O)c1ncn2c(=O)n(CCF)nnc12 [KL-50]
activity in the four LN229 cell lines [1]: mirrored that of 4b
rescue of toxicity by ROS scavenger NAC [1]: did not result in rescue
selectivity for MGMT-deficient cells ([1]; LN229): ~ 25 fold
clonogenic survival, MGMT+ cells ([2]; LN229 MGMT+ cells): minimal toxicity to MGMT+ cells at doses up to at least 200 µM
clonogenic survival, MGMT- cells ([2]; LN229 MGMT- cells, MMR+/-): robust antitumor activity in MGMT- cells, independent of MMR status
activity in DLD1 cells [3]: toxic to these cells, but only after O^6BG-induced MGMT depletion
activity in HCT116 cells [4]: selective tumor cell killing specifically in the setting of O^6BG-induced MGMT suppression
ICLs in plasmid DNA [5]: possessed ICLs, with delayed rates of formation relative to 12b
CHK1 and CHK2 phosphorylation [6]: induced CHK1 and CHK2 phosphorylation in MGMT- cells regardless of MMR status
FANCD2 ubiquitination [7]: observed specifically in MGMT- cells
sensitivity of BRCA2-/- cells [8]: BRCA2 loss enhanced the toxicity
therapeutic index (TI), ratio of IC50 values in MGMT+/BRCA2+ cells compared to MGMT-/BRCA2- cells ([8]; DLD1 isogenic model): ~ 600 fold
cytotoxicity in normal human fibroblast cells (BJ fibroblast cells): no increase in toxicity
